Reference: the NIST ThermoML archive (doi:10.1007/s10765-015-1927-y)

Columns and labels:
[1] = xn = mol fraction of the nth substance listed; conditions: 303.15 K, 101 kPa, Liquid; for speed of sound: Frequency=1 MHz
[2] = 303.15 K, 101 kPa, Liquid; for speed of sound: Frequency=1 MHz

ClC=C(Cl)Cl [trichloroethene] + CCCOC(C)=O
[1]
Conditions | mass density [kg/m3] | speed of sound [m/s] | viscosity [mPa·s]
x1 = 0.1419 | 942.22 | 1126 | 0.567
x1 = 0.2337 | 987.22 | 1112 | 0.578
x1 = 0.364 | 1054.63 | 1094 | 0.592
x1 = 0.4555 | 1104.47 | 1081 | 0.601
x1 = 0.5827 | 1177.08 | 1063 | 0.61
x1 = 0.6735 | 1231.75 | 1050 | 0.614
x1 = 0.7713 | 1293.35 | 1038 | 0.612
x1 = 0.8922 | 1374.05 | 1025 | 0.604
x1 = 1 | 1450.9 | 1016 | 0.589

CCCCOC(C)=O [butyl ethanoate] + ClC=C(Cl)Cl
[1], x2 = 0
Conditions | mass density [kg/m3] | speed of sound [m/s] | viscosity [mPa·s]
– | 871.07 | 1170 | 0.638

CCCCOC(C)=O [butyl ethanoate]
[2]
Conditions | mass density [kg/m3] | speed of sound [m/s] | viscosity [mPa·s]
– | 871.07 | 1170 | 0.638

ClC=C(Cl)Cl [trichloroethene]
[2]
Conditions | mass density [kg/m3] | speed of sound [m/s] | viscosity [mPa·s]
– | 1450.9 | 1016 | 0.589

CCOC(C)=O [ethyl acetate] + ClC=C(Cl)Cl
[1], x2 = 0
Conditions | mass density [kg/m3] | speed of sound [m/s] | viscosity [mPa·s]
– | 888.75 | 1126 | 0.424

CCCOC(C)=O [propyl ethanoate] + ClC=C(Cl)Cl
[1], x2 = 0
Conditions | mass density [kg/m3] | speed of sound [m/s] | viscosity [mPa·s]
– | 876.55 | 1148 | 0.547

CCOC(C)=O [ethyl acetate]
[2]
Conditions | mass density [kg/m3] | speed of sound [m/s] | viscosity [mPa·s]
– | 888.75 | 1126 | 0.424

ClC=C(Cl)Cl [trichloroethene] + CCCCOC(C)=O
[1]
Conditions | mass density [kg/m3] | speed of sound [m/s] | viscosity [mPa·s]
x1 = 0.1739 | 944.38 | 1145 | 0.66
x1 = 0.25 | 979.14 | 1135 | 0.665
x1 = 0.3658 | 1035.81 | 1115 | 0.67
x1 = 0.4722 | 1092.05 | 1097 | 0.666
x1 = 0.5724 | 1149.11 | 1080 | 0.666
x1 = 0.6942 | 1224.71 | 1060 | 0.654
x1 = 0.7761 | 1279.91 | 1047 | 0.644
x1 = 0.9126 | 1380.34 | 1027 | 0.62
x1 = 1 | 1450.9 | 1016 | 0.589

ClC=C(Cl)Cl [trichloroethene] + CCOC(C)=O
[1]
Conditions | mass density [kg/m3] | speed of sound [m/s] | viscosity [mPa·s]
x1 = 0.1325 | 957.65 | 1105 | 0.451
x1 = 0.2099 | 998.68 | 1094 | 0.47
x1 = 0.3674 | 1083.99 | 1073 | 0.501
x1 = 0.4158 | 1110.76 | 1067 | 0.509
x1 = 0.5484 | 1185.16 | 1051 | 0.532
x1 = 0.6854 | 1263.95 | 1037 | 0.552
x1 = 0.8354 | 1352.1 | 1025 | 0.57
x1 = 0.8995 | 1390.34 | 1021 | 0.577
x1 = 1 | 1450.9 | 1016 | 0.589

CCCOC(C)=O [propyl ethanoate]
[2]
Conditions | mass density [kg/m3] | speed of sound [m/s] | viscosity [mPa·s]
– | 876.55 | 1148 | 0.547
